According to patent US10675254B2, “Sphingosine-1-phosphate receptor agonist iontophoretic devices and methods of using the same” (Teikoku Seiyaku Co., Ltd., priority 2013, dated 2020):
Structures can show the parent of a compound that is named as a salt.

Columns and labels:
[1] = In vitro iontophoretic delivery (active + passive) of Fingolimod HCl through epidermis of cadaver skin, Franz cell; format: in vitro ADME; conditions: for Active + passive Maximum delivery efficiency: donor 0.5% Fingolimod HCl solution, 8 hr; for Active + passive Maximum delivery efficiency / Active + passive Average delivery efficiency: 0.425 mA, 1.77 cm2; for Active + passive Average delivery efficiency: Ag anode/AgCl cathode, 48 hr
[2] = In vitro passive delivery of Fingolimod HCl through epidermis of cadaver skin, Franz cell (control); format: in vitro ADME; conditions: for Passive Maximum delivery efficiency: donor 0.5% Fingolimod HCl solution, 8 hr; for Passive Maximum delivery efficiency / Passive Average delivery efficiency: 1.77 cm2; for Passive Average delivery efficiency: 48 hr
Source text: Passive delivery under the same experimental conditions was also concurrently investigated with the iontophoretic delivery and employed as a control. […] The maximum efficiency could be reached at a concentration of less than 0.25%. After 8 hr., some passive delivery of fingolimod HCl through the skin was also observed. This observation may have resulted from the imperfection of the skin and the experimental design. In this study, the presence of pores from the micro-sized damage of the epidermis during the preparation of the epidermal membrane and from the appendages (hair follicles, sweat ducts) might facilitate the contact between donor and receptor site and contribute to the passive delivery of fingolimod HCl solution into the receptor solution.

[3] = orally administered fingolimod HCl; cited from earlier work
[4] = donor 0.25% fingolimod HCl solution, receptor 0.09% NaCl
[5] = donor 0.50% fingolimod HCl solution, receptor 0.09% NaCl
[6] = donor 0.75% fingolimod HCl solution, receptor 0.09% NaCl
[7] = donor 1% fingolimod HCl solution, receptor 0.09% NaCl
[8] = donor 2% fingolimod HCl solution, receptor 0.09% NaCl

## CCCCCCCCc1ccc(CCC(N)(CO)CO)cc1 [Fingolimod HCl, 2-amino-2-[2-(4-octylphenyl)ethyl]propane-1,3-diol]
[1]; 0.25, 0.5, 0.75, 1 and 2% fingolimod HCl solutions, current 0.425 mA, area 1.77 cm^2
  delivery efficiency (active+passive): about 4.5 μg/cm2/hr
[1]; Ag/AgCl electrodes, receptor 0.9% NaCl
  Active + passive Maximum delivery efficiency: 5.0 ug/cm2/hr
[1]; Zn/AgCl electrodes, receptor 0.09% NaCl
  Active + passive Maximum delivery efficiency: 16.8 ug/cm2/hr
[1]; Zn/AgCl electrodes, receptor 0.9% NaCl
  Active + passive Maximum delivery efficiency: 5.8 ug/cm2/hr
[1]; [4]
  Active + passive Average delivery efficiency: 4.8 ug/cm2/hr
[1]; [5]
  Active + passive Average delivery efficiency: 5.0 ug/cm2/hr
[1]; [6]
  Active + passive Average delivery efficiency: 4.5 ug/cm2/hr
[1]; [7]
  Active + passive Average delivery efficiency: 4.5 ug/cm2/hr
[1]; [8]
  Active + passive Average delivery efficiency: 4.2 ug/cm2/hr
[2]; receptor 0.09% NaCl
  Passive Maximum delivery efficiency: 0 ug/cm2/hr
[2]; receptor 0.9% NaCl
  Passive Maximum delivery efficiency: 0 ug/cm2/hr
[2]; [4]
  Passive Average delivery efficiency: 0.8 ug/cm2/hr
[2]; [5]
  Passive Average delivery efficiency: 0.9 ug/cm2/hr
[2]; [6]
  Passive Average delivery efficiency: 0.8 ug/cm2/hr
[2]; [7]
  Passive Average delivery efficiency: 0.7 ug/cm2/hr
[2]; [8]
  Passive Average delivery efficiency: 1.4 ug/cm2/hr
[2]; over an 8 h period, 0.5% Fingolimod HCl solution
  passive delivery detected: no Fingolimod HCl delivery was detected
[3]
  peak to trough fluctuations, non-phosphorylated fingolimod: ≤ 20%
  peak to trough fluctuations, phosphorylated (active) form of fingolimod: ≤ 45%
